What was measured:
Acinetobacter baumannii = experiment: Inhibition of beta-lactamase in Acinetobacter baumannii CL 6188 assessed as drug concentration required to reduce imipenem MIC to 4 ug/ml
Pseudomonas aeruginosa = experiment: Inhibition of beta-lactamase in Pseudomonas aeruginosa CL 5701 assessed as drug concentration required to reduce imipenem MIC to 4 ug/ml
Klebsiella pneumoniae = experiment: Inhibition of beta-lactamase in Klebsiella pneumoniae CL 6569 assessed as drug concentration required to reduce imipenem MIC to 4 ug/ml
Beta-lactamase = Beta-lactamase (Acinetobacter baumannii, UniProt Q8RLA6); experiment: Inhibition of beta-lactamase Oxa40 in Acinetobacter baumannii assessed as inhibition of hydrolysis of nitrocefin
Sequence of Beta-lactamase (Q8RLA6 whole entry): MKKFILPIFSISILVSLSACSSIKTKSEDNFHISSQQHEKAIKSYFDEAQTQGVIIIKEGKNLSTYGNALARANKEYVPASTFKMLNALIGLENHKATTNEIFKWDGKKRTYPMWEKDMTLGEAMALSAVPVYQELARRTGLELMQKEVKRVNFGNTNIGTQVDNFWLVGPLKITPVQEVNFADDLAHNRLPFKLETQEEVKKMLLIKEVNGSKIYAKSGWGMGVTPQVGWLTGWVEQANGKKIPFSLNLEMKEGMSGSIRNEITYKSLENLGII

[1] = Inhibition of beta-lactamase AmpC in Acinetobacter baumannii assessed as inhibition of hydrolysis of nitrocefin
[2] = Inhibition of beta-lactamase AmpC in Pseudomonas aeruginosa assessed as inhibition of hydrolysis of nitrocefin
[3] = Inhibition of beta-lactamase KPC-2 in Klebsiella pneumoniae assessed as inhibition of hydrolysis of nitrocefin

INH (Acinetobacter baumannii) [µM]	INH (Pseudomonas aeruginosa) [µM]	INH (Klebsiella pneumoniae) [µM]	IC50 (Beta-lactamase) [µM]	IC50 [1] [nM]	IC50 [2] [nM]	IC50 [3] [nM]	SMILES
> 100	3.12	6.25	> 50	5600	140	410	O=C(N[C@H]1CCNC1)[C@@H]1CC[C@@H]2CN1C(=O)N2OS(=O)(=O)O
> 100	6.25	12.5	> 50	1200	520	225	O=C(N[C@@H]1CCCNCC1)[C@@H]1CC[C@@H]2CN1C(=O)N2OS(=O)(=O)O
> 100	6.25	12.5	> 50	1700	69	245	O=C(N[C@H]1CCCNCC1)[C@@H]1CC[C@@H]2CN1C(=O)N2OS(=O)(=O)O
> 100	6.25	6.25	> 50	27000	1900	260	O=C(N[C@@H]1CCNC1)[C@@H]1CC[C@@H]2CN1C(=O)N2OS(=O)(=O)O
> 100	6.25	6.25	> 50	2200	30	77	O=C(NCC1CCNCC1)[C@@H]1CC[C@@H]2CN1C(=O)N2OS(=O)(=O)O
> 100	4.7	12.5	> 50	4100	465	–	O=C(NC1CCNCC1)[C@@H]1CC[C@@H]2CN1C(=O)N2OS(=O)(=O)O [RELEBACTAM]
> 100	12.5	12.5	> 50	2700	500	240	CN1CCC(NC(=O)[C@@H]2CC[C@@H]3CN2C(=O)N3OS(=O)(=O)O)CC1
> 100	50	50	> 50	470	9.5	150	O=C(NC1CCS(=O)(=O)CC1)[C@@H]1CC[C@@H]2CN1C(=O)N2OS(=O)(=O)O

More lines, now with the values behind:

SMILES	INH (Acinetobacter baumannii) [µM]	INH (Pseudomonas aeruginosa) [µM]	INH (Klebsiella pneumoniae) [µM]	IC50 (Beta-lactamase) [µM]	IC50 [1] [nM]	IC50 [2] [nM]	IC50 [3] [nM]
O=C(OC1CCNCC1)[C@@H]1CC[C@@H]2CN1C(=O)N2OS(=O)(=O)O	> 100	6.25	6.25	13	1100	170	9
O=C(O)c1ccc(NC(=O)[C@@H]2CC[C@@H]3CN2C(=O)N3OS(=O)(=O)O)cc1	> 100	50	> 100	4.8	460	11	10
O=C(Nc1ccccn1)[C@@H]1CC[C@@H]2CN1C(=O)N2OS(=O)(=O)O	> 100	12.5	100	0.53	23	1.2	36
O=C(Nc1cccnc1)[C@@H]1CC[C@@H]2CN1C(=O)N2OS(=O)(=O)O	> 100	100	50	20	1200	37	42
NCc1ccc(NC(=O)[C@@H]2CC[C@@H]3CN2C(=O)N3OS(=O)(=O)O)nc1	> 100	6.25	12.5	4.4	26	3	42
Nc1cccc(NC(=O)[C@@H]2CC[C@@H]3CN2C(=O)N3OS(=O)(=O)O)n1	> 100	50	25	0.36	100	8	11
O=C(Nc1ccncc1)[C@@H]1CC[C@@H]2CN1C(=O)N2OS(=O)(=O)O	> 100	25	50	20	1050	6	–
N[C@@H](Cc1ccc(NC(=O)[C@@H]2CC[C@@H]3CN2C(=O)N3OS(=O)(=O)O)cc1)C(=O)O	> 100	25	50	28	1100	11	3
C[n+]1ccc(NC(=O)[C@@H]2CC[C@@H]3CN2C(=O)N3OS(=O)(=O)[O-])cc1	> 100	25	25	> 50	12000	210	260
CN(C(=O)[C@@H]1CC[C@@H]2CN1C(=O)N2OS(=O)(=O)O)C1CCNCC1	> 100	25	50	> 50	2100	290	2500
